The target of series [1] is HIV protease enzyme (Human immunodeficiency virus type 1 group M subtype B, UniProt P04585). The series can be described thus: IC50s measured in vitro against HIV protease enzyme at pH 4.7 and 6.2.
For series [2], the target named is T1, Recombinant HIV-1 protease (Human immunodeficiency virus type 1 group M subtype B, UniProt P04585).
T1 construct: Recombinant HIV-1 protease (>96% purity); purchased Bachem Bioscience, Inc. (King of Prussia, Pa.)
The series can be described thus: HIV Protease Assay (Ki). It counts as biochemical. The conditions noted are these: pH 6.2, 37° C., 40 μM substrate III. The method, then:
Recombinant HIV-1 protease (>96% purity) and HIV protease substrate III (the undecapeptide H-His-Lys-Ala-Arg-Val-Leu-Nph-Glu-Ala-Nle-Ser-NH2, 97% purity) were purchased from Bachem Bioscience, Inc. (King of Prussia, Pa.).
The methods employed follow the procedures of Tummino, et al., Archives of Biochemistry and Biophysics, 1995;316:523). […] (total volume, […]). […] The final inhibitor concentrations used were 0 (0.1, 0.2, in some experiments), 0.5, 1, 2, 5, 10, 20, 50, and 100 μM. The solution was mixed, incubated for 5 minutes and the reaction quenched by addition of trifluoracetic acid, 2% final. The (leu-p-nitro-phe) bond of the substrate is cleaved by the enzyme and substrate and products separated by reverse-phase HPLC (high pressure liquid chromatography). Absorbance was measured at 220 nm, peak areas determined, and percentage conversion to product used to calculate percentage control (=[% conversion (+inhibitor)/% conversion (−inhibitor)]×100).
Ki means inhibitory constant; it approximately the equilibrium binding constant for the binding of the inhibitor to the free enzyme.

Series [3] concerns HIV infected lymphocyte derived CEM cells. In words: Cellular Infection Assay, XTT cytopathic procedure in CEM cells (antiviral efficacy). The series is classed as cell-based. On the procedure: Compounds were tested in lymphocyte derived CEM cells using the XTT cytopathic procedures and were performed at Southern Research Institute (Buckheit, et al., Antiviral Res., 1993;21:247; see also Weislow, et al., J. Nat. Cancer Inst., 1989;81:577). Compound concentrations were 0.32, 1, 3.2, 10, 32, and 100 μM. The EC50 represents the concentration of agent, which reduces HIV cytopathic effects 50% relative to untreated control. Cellular toxicity of the agents are estimated from the TC50 which represents the concentration of the agent which inhibits 50% of the viability of uninfected cells.
EC50 indicates the concentration of the drug which provide 50% protection against HIV.
In general terms: Formazan colour is commonly taken as a measure of viable cells.

In series [4] the test system is uninfected CEM cells. The series can be described thus: Cellular toxicity in uninfected CEM cells (XTT). It counts as cell-based. The conditions noted are these: cytotoxicity in 50% of uninfected CEM cells; read-out: TC50 (the source's name). On the procedure: (§1) Compound concentrations were 0.32, 1, 3.2, 10, 32, and 100 μM.
Series [5] is described as follows: Cellular toxicity in uninfected CEM cells (XTT). The conditions noted are these: human, uninfected CEM cells (lymphocyte derived), cytotoxicity in 50% of uninfected CEM cells; read-out: TC50 (the source's name). The series is classed as cell-based. On the procedure: as §1

Where two headings read alike, the source gives them in different places.

`Cc1ccc(C(C)(C)C)c(Sc2c(O)cc(-c3ccccc3)oc2=O)c1`: the half-inhibitory concentration (IC50) – broadly, the concentration that gives 50% inhibition – is 28 nM in series [1] (pH (4.7)) and 280 nM in series [1] (pH (6.2)).
The like results for `Cc1ccc(C(C)(C)C)c(SC2=C(O)CC(CCc3ccccc3)(c3ccccc3)OC2=O)c1` (centres unmarked) were, in that order, 10 nM and 35 nM.
On to `CCCN(C1=C(O)CC(CCc2ccc(O)cc2)(C(C)C)OC1=O)c1cccc(NS(=O)(=O)c2ccc(C(F)(F)F)cn2)c1` (centres unmarked) [Example 2, 5-Trifluoromethyl-pyridine-2-sulfonic acid [3-({4-hydroxy-6-[2-(4-hydroxy-phenyl)-ethyl]-6-isopropyl-2-oxo-5,6-dihydro-2H-pyran-3-yl}-propyl-amino)-phenyl]-amide], for which the melting point (commonly the temperature of the solid-liquid transition) lay in the range of 107 to 110 °C. The Ki (commonly the dissociation constant of the complex between target and ligand, obtained from inhibition or displacement) in series [2] (Inhibition of HIV Protease Ki) was 0.083 nM. Further, the concentration for a half-maximal effect (EC50) (as a rule, the concentration needed to bring the measured effect to its halfway point) in series [3] (read-out: Antiviral Efficacy EC50, CEM cells, 50% protection against HIV cytopathic effects) worked out at 1000 nM. In addition, the CC50 in series [4] was determined as 71000 nM.
The molecule `CC(C)C1(CCc2ccc(O)cc2)CC(O)=C(N(CCC#N)c2ccccc2)C(=O)O1` (centres unmarked) [Example 21, 3-({4-Hydroxy-6-[2-(4-hydroxy-phenyl)-ethyl]-6-isopropyl-2-oxo-5,6-dihydro-2H-pyran-3-yl}-phenyl-amino)-propionitrile] had a melting point of 119 to 121 °C. Also, the Ki in series [2] (Inhibition of HIV Protease Ki) stood at 1.6 nM. In addition, the half-maximal effective concentration (EC50) in series [3] (Human immunodeficiency virus 1, CCRF-CEM, read-out: Antiviral Efficacy EC50, CEM cells, 50% protection against HIV cytopathic effects) came to 2700 nM. The CC50 in series [5] stood at 320000 nM.
For the molecule `CCCN(C1=C(O)CC(CCc2ccccc2)(C(C)C)OC1=O)c1ccccc1` (centres unmarked) [drawing 7], the IC50 in series [1] (pH (4.7)) and in series [1] (pH (6.2)) was 4 nM in each case.
As to “Pyridine-2-sulfonic acid [3-({4-hydroxy-6-[2-(4-hydroxy-phenyl)-ethyl]-6-isopropyl-2-oxo-5,6-dihydro-2H-pyran-3-yl}-propyl-amino)-phenyl]-amide [Example 14]”, the Ki in series [2] (read-out: Inhibition of HIV Protease Ki) worked out at 0.54 nM. Also, in series [3] (CEM cells, 50% protection against HIV cytopathic effects, read-out: Antiviral Efficacy EC50), the concentration giving a half-maximal response (EC50) amounted to 1600 nM. Also, in series [4], the CC50 was found to be 210000 nM.

The record behind these values is patent publication US6512006B1, “HIV protease inhibitors” (Warner-Lambert Company, priority 1999, dated 2003).
